Measured values reported in publication PMC12655252, “Synthesis of 1H-Pyrrolo[3,2-g]isoquinoline Derivatives as Ligands Targeting Haspin Kinase” (Molecules, 2025).

Experiments:
HsCDK9/CyclinT = target: T1, HsCDK9/CyclinT (Homo sapiens, UniProt P50750); assay: ADP-Glo in vitro kinase inhibition assay, CDK9/CyclinT; assay type: biochemical; settings: 10 μM ATP, read-out: CDK9 % residual activity; for remaining activity at 1 µM: 1 μM compound; for remaining activity at 10 µM: 10 μM compound
T1 construct: made in house; host or cells: Sf9 insect cells (baculovirus)
Procedure: (§1) We previouly reported that substitution at the 3-position with halogen atoms or pyridinyl or formyl groups was compatible with high potency toward Haspin kinase. To check if the current structural changes were in line with potent Haspin inhibition and high selectivity, enabling consideration of these compounds as possible targeting ligands for the PROTAC approach, compounds 2, 3, 8–11, and 15–17 were evaluated toward a panel of eight protein kinases, including Haspin, as well as other kinases known to be frequently cross-inhibited (CLK1, DYRK1A, CDK9/Cyclin T, GSK-3β, CK1ε, CDK5/p25, and Pim1) (Table 1). The percentage of residual kinase activity was evaluated at 10 μM and 1 μM compound concentrations. […].
(§2) Kinase inhibition was tested in 384-well plates using the ADP-GloTM assay kit (Promega, Madison, WI, USA) according to the procedure recommended by the manufacturer. Reactions were set up in a final volume of 6 μL in an appropriate kinase buffer (10 mM MgCl2, 1 mM EGTA, 1 mM DTT, 25 mM Tris-HCl pH 7.5, 50 μg/mL heparin) with either protein or peptide as the substrate in the presence of 10 μM ATP. To stop the kinase reaction, 6 μL of ADP-GloTM Kinase Reagent was added after 30 min at 30 °C. Then, after 50 min of incubation at room temperature (RT), 12 μL of Kinase Detection Reagent was added. The transmitted signal was measured after 1 h at RT using the Envision (Perkin Elmer, Waltham, MA, USA) microplate luminometer and expressed in relative light units (RLU). In order to determine the half-maximal inhibitory concentration (IC50), all assays were performed in duplicate in the absence or presence of increasing doses of the tested compounds. GraphPad Prism10 software (GraphPad Software, San Diego, CA, USA) was used to fit dose–response curves and to determine the IC50 values. Kinase activities are given as percentages of maximal activity, i.e., measured in the absence of inhibitor. Peptide substrates were obtained from Proteogenix (Schiltigheim, France).
(§3) The following protein kinases were analyzed in this study: CDK5/p25 (human, vector pGEX-2T, expressed in bacteria; kindly provided by Dr. J. H. Wang) was assayed with 0.8 μg/μL of histone H1 as substrate; HsCDK9/CyclinT (NP_001252/KAI4065659, cloned in pTEFb vector, expressed by baculovirus in Sf9 insect cells) were assayed with 0.27 μg/μL of the following peptide: […], as substrate; HsCK1ε (NP_001885, cloned in pFAST-BAC vector, expressed in Sf9 insect cells) was assayed with 0.022 μg/μL of the following peptide: […]pAYSITA (“Sp” stands for phosphorylated serine) as CK1-specific substrate; HsGSK3β (AAH12760, cloned in pFAST-BAC, expressed by baculovirus in Sf9 insect cells) were assayed with 0.010 μg/μL of GS-1 peptide, a GSK-3-selective substrate ([…]pEDEEE); HsHaspin-kd (NP_114171, kinase domain, amino acids 470–798 cloned in pGEX-6P-3, expressed in bacteria) was assayed with 0.007 μg/μL of histone H3 (1–21) peptide ([…]) as substrate; Pim-1 (KAI4018123, expressed in bacteria) was assayed with 0.8 μg/μL of histone H1 as substrate; HsCLK1 (NP_004062, cloned in pFAST-BAC, expressed in Sf9 insect cells) was assayed with 0.027 μg/μL of the peptide: […]; RnDYRK1A-kd (Rattus norvegicus, amino acids 1–499, pGEX-2TK, expressed in bacteria, gift from Dr. W. Becker, Aachen, Germany) was tested in the presence of 0.033 μg/μL of the peptide: […].

RnDYRK1A-kd = target: T2, RnDYRK1A-kd (Rattus norvegicus, UniProt Q63470); assay: ADP-Glo in vitro kinase inhibition assay, DYRK1A; assay type: biochemical; settings: 10 μM ATP; for remaining activity at 1 µM: 1 μM compound; for remaining activity at 1 µM / remaining activity at 10 µM: read-out: DYRK1A % residual activity; for remaining activity at 10 µM: 10 μM compound
T2 construct: Rattus norvegicus, amino acids 1–499, pGEX-2TK; made in house; host or cells: bacteria
Procedure: as §1, §2, §3

T1 sequence (P50750 whole entry): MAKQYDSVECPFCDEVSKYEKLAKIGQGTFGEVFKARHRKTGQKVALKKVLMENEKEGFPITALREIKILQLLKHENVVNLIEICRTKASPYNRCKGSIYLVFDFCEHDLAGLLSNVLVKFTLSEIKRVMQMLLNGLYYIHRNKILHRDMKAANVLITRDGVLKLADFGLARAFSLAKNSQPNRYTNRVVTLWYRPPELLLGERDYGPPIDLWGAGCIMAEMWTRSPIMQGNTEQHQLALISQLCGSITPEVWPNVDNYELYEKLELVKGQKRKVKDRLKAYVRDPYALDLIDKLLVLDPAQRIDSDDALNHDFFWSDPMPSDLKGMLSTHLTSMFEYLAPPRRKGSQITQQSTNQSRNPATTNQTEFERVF
T1 sequence (O60563 whole entry partner): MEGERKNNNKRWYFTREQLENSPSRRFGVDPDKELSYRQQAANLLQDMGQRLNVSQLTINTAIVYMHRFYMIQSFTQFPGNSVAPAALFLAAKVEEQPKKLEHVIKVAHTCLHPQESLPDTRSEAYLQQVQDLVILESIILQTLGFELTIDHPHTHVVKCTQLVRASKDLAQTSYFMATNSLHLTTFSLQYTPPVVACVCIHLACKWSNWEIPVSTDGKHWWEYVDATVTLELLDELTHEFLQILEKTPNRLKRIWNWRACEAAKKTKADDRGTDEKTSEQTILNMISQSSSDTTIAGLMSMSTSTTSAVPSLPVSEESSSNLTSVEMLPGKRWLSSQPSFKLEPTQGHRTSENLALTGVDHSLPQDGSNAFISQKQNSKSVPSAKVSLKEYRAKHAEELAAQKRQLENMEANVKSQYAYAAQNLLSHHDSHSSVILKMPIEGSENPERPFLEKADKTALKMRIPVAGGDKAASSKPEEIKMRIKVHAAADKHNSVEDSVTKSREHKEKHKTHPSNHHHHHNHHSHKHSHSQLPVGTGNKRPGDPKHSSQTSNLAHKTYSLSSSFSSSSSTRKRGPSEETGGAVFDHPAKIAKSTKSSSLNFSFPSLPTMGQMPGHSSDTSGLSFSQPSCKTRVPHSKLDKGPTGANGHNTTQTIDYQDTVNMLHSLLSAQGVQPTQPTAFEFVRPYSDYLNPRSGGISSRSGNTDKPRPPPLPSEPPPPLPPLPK

| SMILES | remaining activity at 1 µM (HsCDK9/CyclinT) [%] | remaining activity at 10 µM (HsCDK9/CyclinT) [%] | remaining activity at 1 µM (RnDYRK1A-kd) [%] | IC50 (RnDYRK1A-kd) [nM] | remaining activity at 10 µM (RnDYRK1A-kd) [%] |
| --- | --- | --- | --- | --- | --- |
| COC(=O)/C=C/c1c[nH]c2cc3cnccc3cc12 [Compound 8, Methyl (E)-3-(1H-Pyrrolo[3,2-g]isoquinolin-3-yl)prop-2-enoate] | 79 | 51 | 43 | 1130 | 16 |
| c1cc2cc3c(-c4cc[nH]n4)c[nH]c3cc2cn1 [Compound 15, 3-(1H-Pyrazol-3-yl)-1H-pyrrolo[3,2-g]isoquinoline] | – | – | 39 | 324 | 1 |
| c1cc2cc3c(-c4cn[nH]c4)c[nH]c3cc2cn1 [Compound 16, 3-(1H-Pyrazol-4-yl)-1H-pyrrolo[3,2-g]isoquinoline] | – | – | 11 | 163 | 0 |

The remaining lines, values ahead:

| remaining activity at 1 µM (HsCDK9/CyclinT) [%] | remaining activity at 10 µM (HsCDK9/CyclinT) [%] | remaining activity at 1 µM (RnDYRK1A-kd) [%] | IC50 (RnDYRK1A-kd) [nM] | remaining activity at 10 µM (RnDYRK1A-kd) [%] | SMILES |
| --- | --- | --- | --- | --- | --- |
| 83 | 44 | 15 | 212 | 0 | Nc1ccc(-c2c[nH]c3cc4cnccc4cc23)cn1 [Compound 3, 5-(1H-Pyrrolo[3,2-g]isoquinolin-3-yl)pyridin-2-amine] |
| 76 | 39 | 69 | – | 19 | c1c[nH]c(-c2c[nH]c3cc4cnccc4cc23)c1 [Compound 17, 3-(1H-Pyrrol-2-yl)-1H-pyrrolo[3,2-g]isoquinoline] |
